Reference: patent US6369109B1, “Betulinic acid and derivatives thereof useful for the treatment of neuroectodermal tumor” (Deutsches Krebsforschungszentrum Stiftung des Offentlichen …, priority 1998, dated 2002)
Residues, ends and D or L forms follow the SMILES beside them. *: point of attachment. Cbz = O=C(OCc1ccccc1)*; CH2F = FC*

Legend:
[1] = tested on: SH-EP neuroblastoma cells; assay: Mitochondrial potential (DiOC6(3)), ROS (HE) and lipid peroxidation (NAO) by flow cytometry; assay type: cell-based, human; settings: FIG. 12B
Experimental: The cationic lipophilic fluorochrome DiOC6(3)(460 ng/ml, Molecular Probes, Eugene, Oreg.) was used to measure the Δ¥m. HE(126 ng/ml. Molecular probes) was used to determine ROS generation, and NAO (94 ng/ml, Molecular Probes) was used to determine lipid peroxidation. Kroemer et al, 1997, Immunol. Today. 18:44-51. Cells were incubated for 12 min at 37° C. in the presence of the fluorochromes, washed in PBS/1% FCS, and immediately analyzed by flow cytometry (FACScan, Becton Dickinson). DiOC6(3) and NAO fluorescence were recorded in fluorescence 1; He fluorescence was assessed in fluorescence 3. The percentage of cells with low mitochondrial potential or enhanced ROS production was calculated in comparison to untreated control cells.
SH-EP neuroblastoma cells were treated with 10 μg/ml betulinic acid for the indicated times. Cells were stained with the fluorochrome DiOC6(3) to determine ΔΨm and with HE to determine ROS generation and analyzed by flow cytometry. Fold increase in cells with low ΔΨm [DiOC6(3)^low] or with enhanced ROS production (HE+) is shown.
SH-EP neuroblastoma cells treated with 10 μg/ml […] for 24 h (heavy line) or control cells (thin line) were strained with NAO to assess oxidized cardiolipin and analyzed by flow cytomety.
For determination of mitochondrial membrane potential, cells (5×10^5/ml) were incubated with 3,3′-dihexyloxacarbocyanide iodide (DiOC6(3), 40 nM, Molecular Probes, Inc., Eugene, Oreg.) for 15 min at 37° C. and analyzed on a flow cytometer (FACScan) (Zamzarni et al., 1996 J. Exp. Med. 183:1533-44). For cell sorting, cells were stained with DiOC6(3) and sorted into DiOC6(3)^high and DiOC6(3)^low cells on a cytofluorometer (FACS Vantage, Becton Dickinson). As a control, cells were treated with the uncoupling agent carbonyl cyanide m-chlorophenylhydrazone (mCICCP, 200 μM, Sigma).
SHEP cells transfected with Bcl-2 or BCl-XL or a neomycin resistance vector only (Neo) were treated with 0.5 μg/ml Doxorubicin or 10 μg/ml Betulinic acid for 48 h (A) or 24 h (B and C). Cells transfected with a neomycin resistance vector only (Neo) were treated in the presence or absence of 50 μm BA or 60 μm zVAD-fmk. Nuclear apoptosis was determined by FACS analysis or propidium iodide-stained DNA content in intact cells (A) or in a CFS incubating isolated nuclei with mitochondria from cells treated with Doxo or betulinic acid (C). ΔΨm was determined by staining cells with the potential-sensitive fluorochrome DiOC6(3) (B).

[2] = tested on: caspase-3, caspase-8 and PARP in cytosolic extracts of SHEP cells; assay: Cell-free system of apoptosis: cleavage of caspases in cytosolic extracts by mitochondria; assay type: biochemical, human; settings: for effect of inhibitor on caspase processing by supernatants from betulinic acid-treated mitochondria: 50 μM bongkrekic acid or 60 μM zVAD-fmk, FIG. 10A
Experimental: For determination of nuclear fragmentation, nuclei (10^3/μl) were incubated with mitochondria (1 μg/μl) in buffer D (10 mM HEPES, pH 7.4, 50 mM NaCl, 2 mM MgCl2, 5 mM EGTA, 1 mM DDT, 2 mM ATP, 10 mM phosphocreatine, 50 μg/ml creatine kinase, 10 μM cytochalasin B) for 2 h at 37° C. Nuclei were stained with propidium iodide ([…]) and analyzed by flow cytometry. For determination of caspase activation, cytosolic extracts (2 μg/μl) were incubated with mitochondria (1 μg/μl), cytochrome c (0.1-100 μM) or AIF-containing mitochondrial supernatant (0.5 μg/μl) in buffer D for 2 h at 37° C. Partially purified AIF (cytochrome c-free) was prepared as previously described (0.5 mg/ml, Susin et al., 1997, J. Exp. Med. 186, 5-37; Susin et al., 1996, J. Exp. Med. 184, 1331-41). Proteins were separated by 15% SDS-PAGE and Western blot analysis was performed as described above. To confirm equal loading of mitochondrial protein, all Western blots were also developed with an antibody directed against a 60 kDa mitochondrial antigen (data not shown).
SHEP cells transfected with bcl-2 or Bcl-XL or a neomycin resistance vector only were treated with 10 μg/ml betulinic acid for 16 h. Mitochondria were isolated and incubated with cytosolic extracts for 6 h in the presence or absence of 60 μM zVAD-fmk (left panel, cells). Alternatively, mitochondria isolated from untreated cells were incubated with 10 μg/ml betulinic acid or 5 mM atractyloside together with cytosolic extracts for 6 h in the presence or absence of 60 μMZ-VAD-fmk (right panel, mitos, Atra). Cytosolic extracts incubated with mitochondria isolated from untreated cells or with untreated mitochondria were used as control. 40 μg protein per lane isolated front cell lysates were separated by 15% SDS-PAGE. Immunodetection of caspases-3, -8 and PARP protein was performed by mouse anti-caspase-3 mAb, mouse anti-caspase-8 mAb, rabbit anti-PARP polyclonal antibody and ECL.
SHEP cells treated with 10 μg/ml betulinic acid for indicated times. Mitochondria were isolated and incubated with cytosolic extracts for 6 h. Western blot analysis was performed as described above.
Mitochondria isolated from SHEP cells transfected with bcl-2 or Bcl-XL or a neomycrn resistance vector only were treated with 10 μg/ml betulinic acid or 5 mM atractyloside for 0.5 h in the presence or absence of 50 μM bongkrekic acid or 60 μM zVAD-fmk. Mitochondrial supernatants obtained by high speed centrifugation were incubated with cytosolic extracts for 6 h at 37° C. Cytosolic extracts incubated with supernatants of untreated mitochondria were used as control. Western blot analysis was performed as described for FIG. 9A.
For determination of nuclear fragmentation, nuclei (10^3/μl) were incubated with mitochondria (1 μg/μl) in buffer D (10 mM HEPES, pH 7.4, 50 mM NaCl, 2 mM MgCl2, 5 mM EGTA, 1 mM DDT, 2 mM ATP, 10 mM phosphocreatine, 50 μg/ml creatine kinase, 10 μM cytochalasin B) for 2 h at 37° C. Nuclei were stained with propidium iodide ([…]) and analyzed by flow cytometry (Susin et al., 1997 Exp. Cell Res. 236:397-403). For determination of caspase activation, cytosolic extracts (2 μg/μl) were incubated with mitochondria (1 μg/μl), cytochrome c (10 μM) or AIF-containing mitochondrial supernatant (0.5 μg/μl) in buffer D for 2 h at 37° C. Proteins were separated by 15% SDS-PAGE and Western blot analysis was performed as described before.
SHEP cells transfected with Bcl-2 or Bcl-XL or a neomycin resistance vector only (Neo) were treated (Lanes+) with 0.5 μg/ml Doxo or 10 μg/ml Bet A for 16 h. Mitochondria were isolated and incubated with cytosolic extracts for 6 h. in the presence or absence of 60 μm Z-VAD.fmk. Western blot analysis was performed as described in FIG. 14A.

Question: For CO[C@H](C/C=C\C=C\CC/C=C/C[C@H](C)/C=C/C(=C\C(=O)O)CC(=O)O)/C(C)=C\C=C(/C)C(=O)O [bongkrekic acid], which “effect of inhibitor on drug-triggered ΔΨm loss” value ([1]; 50 μM bongkrekic acid, doxorubicin or betulinic acid) is on record?
Answer: inhibited drug-triggered nuclear fragmentation and ΔΨm loss

Question: What about the “effect of inhibitor on caspase processing by supernatants from betulinic acid-treated mitochondria” value [2] of the same compound?
Answer: inhibited

Question: COc1cccc2c1C(=O)c1c(O)c3c(c(O)c1C2=O)C[C@@](O)(C(=O)CO)C[C@@H]3O[C@H]1C[C@H](N)[C@H](O)[C@H](C)O1 [doxorubicin] was tested. Which “loss of ΔΨm in intact SHEP cells” value ([1]; 0.5 μg/ml doxorubicin or 10 μg/ml betulinic acid, 24 h) did it give?
Answer: induced loss of ΔΨm and nuclear fragmentation

Question: And the “caspase and PARP processing in cytosolic extracts by mitochondria from drug-treated cells” value ([2]; 10 μg/ml betulinic acid or 0.5 μg/ml doxorubicin 16 h, extracts 6 h, FIG. 9A, 15A)?
Answer: induced cleavage of caspases-3, -8 and PARP

Question: With COC(=O)C[C@H](NC(=O)[C@H](C)NC(=O)[C@@H](NC(=O)OCc1ccccc1)C(C)C)C(=O)CF [zVAD-fmk, benzyloxycarbonyl-Val-Ala-Asp-Fluoromethylketone] (Cbz-Val-Ala-Asp(OMe)-CH2F) as the compound, how does the “effect of inhibitor on betulinic acid-induced ΔΨm dissipation” value ([1]; 60 μM zVAD-fmk) read?
Answer: had no effect

Question: What about the “effect of inhibitor on doxorubicin-induced loss of ΔΨm” value ([1]; 60 μM zVAD-fmk) of the same compound?
Answer: both inhibited

Question: And the “effect of inhibitor on caspase processing by supernatants from betulinic acid-treated mitochondria” value [2]?
Answer: inhibited

Question: What about the “effect of inhibitor on cleavage of caspases by mitochondria from drug-treated cells” value ([2]; 60 μM zVAD-fmk, FIG. 9A, 15A) of the same compound?
Answer: blocked
